# Data as given in patent US10525055B2, “Opioid receptor antagonist prodrugs” (Nirsum Laboratories, Inc., priority 2017, dated 2020).
# Experiments:
# [1] = Solubility determination in oil (cottonseed oil, sesame oil)
# Procedure: A known amount of test substance (˜40 mg) was weighed into the vial, 100 μL of oil was added and heated to 60° C. and then system was slurried to reach equilibrium. […] Extra oil was added into the vial once compound precipitated out and then the system was re-equilibrated at 1000 rpm at room temperature (25° C.). Final concentration was determined by HPLC method as described below in Table 6a and 6b.
# [2] = Plasma stability assay, rat plasma; type: in vitro ADME; conditions: 37° C., 10 μM
# Procedure: Plasma stability determination of the test compounds in rat, dog, cynomolgus monkey and human plasma is performed using HPLC-MS. For rat, incubations are carried out in 96-well polypropylene plates in 5 aliquots of 70 μL each (one for each time point). […] Five time points are analyzed (0, 15, 120, 480 and 1440 min). For dog, monkey and human, test compounds (2 μM, final solvent concentration 1%) were also incubated at 37° C. and analyzed at five time points (0, 10, 30, 60 and 120 min). All incubations are performed in duplicates. The samples are analyzed by HPLC-MS. The percentage of parent compound remaining after incubation in plasma is determined.
# [3] = Dog clinical observations after intramuscular dosing; type: in vivo, Beagle dogs; conditions: dog D1502, compound 18 at 48 mg/kg; earlier weight, reported at 96 hr
# Procedure: Weight monitoring was done every week.
# The dose formulation (concentration−400 mg base equivalents/ml in sesame oil+1% benzyl alcohol, unless otherwise specified) was administered via deep intramuscularly (unless otherwise specified). The injection vehicle was also dosed via deep intramuscular route (unless otherwise specified) on contralateral site of each animal at study initiation. The animals were sedated with Propofol at 6 mg/kg via IV administration. Following sedation hair was carefully removed from around the injection site and the area gently cleaned. Care will be taken to avoid irritating skin during shaving and cleaning the injection site. Then dogs will be dosed with deep IM administration. At least 2.5 cm depth from the surface into the central aspect of the quadriceps or biceps femoris muscle, by angling the needle toward the femur. If the needle hits the femur, simply draws back slightly and then inject. The dose volume will be determined by the animals' body weight collected on the morning of dosing day. For repeated administration, the injection sites may be rotated to minimize tissue injury.
# [4] = Rat pharmacokinetic studies, intramuscular; type: in vivo, male Sprague Dawley Rats; conditions: rat, 0.80 mg/kg, saline
# Procedure: The purpose of this study is to determine the pharmacokinetics of test compounds in plasma, following intramuscular administration to male Sprague Dawley Rats (n=3, unless otherwise specified).
# The dose formulation of 400 mg base equivalents/ml in sesame oil+1% benzyl alcohol (unless otherwise specified) was administered by intramuscular injection. The dose volume was determined by the animals' body weight determined on the morning of dosing day.
# Each collected blood sample was centrifuged for 4 minutes at 4° C. and 10000 rpm for plasma collection. Plasma was collected and transferred into a pre-labeled PP tube in dry ice at each time point and precipitated immediately using ACN at a ratio of 1:4 (plasma:ACN). Centrifuged again (10 minutes, 12000 rpm) and obtain the supernatant.
# After terminal collection, all supernatant was stored at approximately −80° C. until bioanalysis.
# LC-MS/MS methods for the quantitative determination of test compound in biological matrix were developed. […] The sample analysis was performed concurrently with a set of calibration standards and two sets of QC samples using the LC-MS/MS method.
# Plasma concentration versus time data was analyzed by non-compartmental approaches using the Phoenix WinNonlin 6.3 software program. Cmax, Tmax, T1/2, AUC(0-t), AUC(0-inf), MRT(0-t), MRT(0-inf) and graphs of plasma concentration versus time profile were prepared.
# [5] = heating temp. 60 °C, obs. temp. 25 °C
SMILES,"Approximate Solubility (mg/mL) in Excipient: Cottonseed oil [1, 5] [mg/mL]","Approximate Solubility (mg/mL) in Excipient: Sesame oil [1, 5] [mg/mL]","% remaining at time point in minutes, 0 min [2] [%]","% remaining at time point in minutes, 15 min [2] [%]","% remaining at time point in minutes, 120 min [2] [%]","% remaining at time point in minutes, 480 min [2] [%]","% remaining at time point in minutes, 1440 min [2] [%]","weight decreases from (earlier weight), D1502 [3] [kg]","Approximate Solubility (mg/mL) in Excipient: Sesame oil ([1]; heating temp. 40 °C, obs. temp. 40 °C) [mg/mL]","Approximate Solubility (mg/mL) in Excipient: Sesame oil ([1]; heating temp. 60 °C, obs. temp. 40 °C) [mg/mL]",AUC0-inf (ng · h/mL) nalmefene [4] [ng·h/mL],Terminal Half-life t1/2 (hour) nalmefene [4] [h]
"C=C1CC[C@@]2(O)C3Cc4ccc(OC(=O)OCCCCCCCCCC)c5c4[C@@]2(CCN3CC2CC2)[C@H]1O5 [Compound 18, (4aS,7aS,12bS)-3-(cyclopropylmethyl)-4a-hydroxy-7-methylene-2,3,4,4a,5,6,7,7a-octahydro-1H-4,12-methanobenzofuro[3,2-e]isoquinolin-9-yl decyl carbonate]",>400,>402,100,0.6,0.3,0.1,0,7.76,–,–,–,–
"C=C1CC[C@@]2(O)C3Cc4ccc(OC(=O)CCCCCCC/C=C\CCCCCCCC)c5c4[C@@]2(CCN3CC2CC2)[C@H]1O5 [Compound 36, (4aS,7aS,12bS)-3-(cyclopropylmethyl)-4a-hydroxy-7-methylene-2,3,4,4a,5,6,7,7a-octahydro-1H-4,12-methanobenzofuro[3,2-e]isoquinolin-9-yl oleate]",>407,>408,100,74.4,66.3,39.8,19.1,–,>411.6,–,–,–
"CCCCCCCCCCCCCCCCCCCC(=O)Oc1ccc2c3c1O[C@H]1C(=O)CC[C@@]4(O)C(C2)N(CC2CC2)CC[C@]314 [Compound 50, (4aS,7aR,12bS)-3-(cyclopropylmethyl)-4a-hydroxy-7-oxo-2,3,4,4a,5,6,7,7a-octahydro-1H-4,12-methanobenzofuro[3,2-e]isoquinolin-9-yl icosanoate]",–,<52,100,114.5,102.7,83.3,73.9,–,–,–,–,–
"CCCCC/C=C\C/C=C\CCCCCCCC(=O)Oc1ccc2c3c1O[C@H]1C(=O)CC[C@@]4(O)C(C2)N(CC2CC2)CC[C@]314 [Compound 53, (4aS,7aR,12bS)-3-(cyclopropylmethyl)-4a-hydroxy-7-oxo-2,3,4,4a,5,6,7,7a-octahydro-1H-4,12-methanobenzofuro[3,2-e]isoquinolin-9-yl (9Z,12Z)-octadeca-9,12-di.enoate]",>408.5,>401.9,100,46.85,19.6,7.3,1.9,–,–,>406.3,–,–
"CCCCCCCCCCCCCCCCCC(=O)Oc1ccc2c3c1O[C@H]1C(=O)CC[C@@]4(O)C(C2)N(CC2CC2)CC[C@]314 [Compound 54, (4aS,7aR,12bS)-3-(cyclopropylmethyl)-4a-hydroxy-7-oxo-2,3,4,4a,5,6,7,7a-octahydro-1H-4,12-methanobenzofuro[3,2-e]isoquinolin-9-yl stearate]",–,<50,100,98.8,62.4,45.6,19.4,–,–,–,–,–
"CCCCCCCCCCCCCC(=O)Oc1ccc2c3c1O[C@H]1C(=O)CC[C@@]4(O)C(C2)N(CC2CC2)CC[C@]314 [Compound 57, (4aS,7aR,12bS)-3-(cyclopropylmethyl)-4a-hydroxy-7-oxo-2,3,4,4a,5,6,7,7a-octahydro-1H-4,12-methanobenzofuro[3,2-e]isoquinolin-9-yl tetradecanoate]",–,>417.3,100,10.5,3.2,1.2,0,–,–,–,–,–
"CCCCCCCCCCCCCCC(=O)Oc1ccc2c3c1O[C@H]1C(=O)CC[C@@]4(O)C(C2)N(CC2CC2)CC[C@]314 [Compound 58, (4aS,7aR,12bS)-3-(cyclopropylmethyl)-4a-hydroxy-7-oxo-2,3,4,4a,5,6,7,7a-octahydro-1H-4,12-methanobenzofuro[3,2-e]isoquinolin-9-yl pentadecanoate]",–,99.4 to 198.8,100,37,20,2.9,1.8,–,–,–,–,–
C=C1CC[C@@]2(O)[C@H]3Cc4ccc(O)c5c4[C@@]2(CCN3CC2CC2)[C@H]1O5.Cl [Nalmefene HCl-IR],–,–,–,–,–,–,–,–,–,–,66.0,0.87
